Assay results: patent publication US20210261964A1, “LIPID PARTICLE CONTAINING A-TYPE CpG OLIGODEOXYNUCLEOTIDE” (THE RESEARCH FOUNDATION FOR MICROBIAL DISEASES OF OSAKA …, priority 2018, published 2021)

Legend:
[1] = test system: Bone marrow cells from WT, TLR7KO, and TLR9KO mice; experiment: TLR9 dependency: IFN-I production in bone marrow cells, B16-Blue sensor cell bioassay; assay type: cell-based, mouse; details: R848 1 ug/mL; 24 hours
Source text: (§1) The content of each lipid per 100 mass % of lipids constituting the lipid particles is as follows: DOTAP: 50 mass %, DPPC: 19.5 mass %, cholesterol: 30 mass %, and DSPE-PEG (2 k (PEG chain length))-OMe: 0.5 mass % or 3.0 mass %. The ratio (N/P) of the number of nitrogen atoms (N) in the lipids constituting the lipid particles to the number of phosphorus atoms (D35) (P) in the nucleic acid was set to 3. A D35-containing aqueous solution and a lipid-containing ethanol solution were mixed using the NanoAssemblr (produced by Precision NanoSystems) to obtain lipid nanoparticles, which were then dialyzed against a 5% glucose aqueous solution. In this Test Example and the following Test Examples, the D35-containing lipid nanoparticles obtained here were used.
(§2) Bone marrow cells were prepared from each of WT, TLR7KO, and TLR9KO mice, and stimulated with R848 (TLR7/8 agonist; medium final concentration: 1 ug/mL), D35 (TLR9 agonist; medium final concentration: 10 uM=63.4 ug/mL), and D35-containing lipid nanoparticles (medium final concentration in terms of D35: 1 μg/mL), followed by culturing for 24 hours. Then, the amounts of IFN-I and IL-6 in the culture supernatant were quantified by a biological activity measurement method using murine type I IFNs sensor cells (B16-Blue IFN-α/a cells) and by the usual ELISA method, respectively.

[2] = test system: Bone marrow cells from WT, TLR7KO, and TLR9KO mice; experiment: TLR9 dependency: IL-6 production in bone marrow cells, ELISA; assay type: cell-based, mouse; details: R848 1 ug/mL, D35 10 uM=63.4 ug/mL, nanoparticles 1 μg/mL in terms of D35, 24 hours; for IL-6 production in TLR7KO: TLR7KO bone marrow cells; for IL-6 production in TLR9KO: TLR9KO bone marrow cells
Source text: as §1, §2

[3] = test system: MC38 mouse colorectal cancer-derived tumor; experiment: MC38 mouse colorectal cancer-derived tumor model, tumor size; assay type: in vivo; details: Test Example 6, FIG. 6: intratumoral, days 9, 11, 13, 15, 17; 4.5 ug/shot D35; effect on days 17 and 21
Experimental: On days 9, 11, 13, 15, and 17 after subcutaneous transplantation of MC38 (1×10^6 cells), a pharmaceutical agent (D35 or D35-containing lipid nanoparticles (DSPE-PEG-OMe content: 0.5 mass %)) was intratumorally administered 5 times in total. Then, the tumor size was measured. The amount of D35 nucleic acid administered at one time was adjusted to 4.5 ug/shot.
On days 9, 11, 13, 15, and 17 after subcutaneous transplantation of MC38 (1×10^6 cells), D35-containing lipid nanoparticles (DSPE-PEG-OMe content: 0.5 mass %) were intratumorally administered 5 times in total. Then, the tumor size was measured. Further, in order to deplete CD8T cells, anti-CD8a antibody (100 ug/shot) or control antibody (100 ug/shot) was intraperitoneally administered on days 6 and 13 after subcutaneous transplantation. The amount of D35 nucleic acid administered at one time was adjusted to 4.5 ug/shot.
On days 9, 11, 13, 15, and 17 after subcutaneous transplantation of MC38 (1×10^6 cells), a pharmaceutical agent (D35 or D35-containing lipid nanoparticles (DSPE-PEG-OMe content: 0.5 mass %)) was administered intravenously 5 times in total. Then, the tumor size was measured. […]
On days 9, 11, 13, 15, and 17 after subcutaneous transplantation of MC38 (1×10^6 cells), D35-containing lipid nanoparticles (DSPE-PEG-OMe content: 0.5 mass %) were administered intravenously 5 times in total. Then, the tumor size was measured. […]

## CCOCc1nc2c(N)nc3ccccc3c2n1CC(C)(C)O [R848]
[1]
  IFN-I production: very weak
[2]
  IL-6 production in TLR7KO: disappeared
  IL-6 production in TLR9KO: did not disappear

## G_G_TGCATCGATGCAGGGG_G_G (DNA GGTGCATCGATGCAGGGGGG; DNA, linkages s2 o15 s2 (s phosphorothioate, o phosphodiester), methylation of C not given here; formulated in lipid nanoparticles) [D35, A-type CpG oligodeoxynucleotide, TLR9 agonist, not complexed with lipids]
[3]
  tumor size: No effect was observed
[2]
  IL-6 production in TLR7KO: did not disappear
  IL-6 production in TLR9KO: disappeared almost completely
